Assay results reported in US12329802B2, “Focal treatment of prostate cancer” (Nymox Corporation, priority 2019, dated 2025).
Where no end group is shown, it is not given here.

Experiments:
[1] = test system: low grade prostate cancer (Gleason grade 6); experiment: clinical study: cancer treatment with new multifocal and an increase in Gleason grade primary pattern in the hemi-prostate (Example 4); assay type: in vivo, human; conditions: for % Imp. (cancer treatment with new multifocal and an increase in Gleason grade primary pattern in the hemi-prostate): vs active surveillance control
Experimental: (§1) In a series of clinical studies a total of 146 men with low grade prostate cancer (Gleason grade 6) were treated in the following manner. Patients were randomized and treated with a transrectal intraprostatic single injection of a composition comprising 2.5 mg FT (n=49), or a composition comprising 15 mg FT (n=48), or were subject to control active surveillance (n=49). After the first follow-up biopsy at 45 days post-randomization, 18 patients in the control active surveillance group crossed over to a single administration of a composition comprising 2.5 mg FT. Patients were followed for 5 years including biopsies at baseline, 45 days, 18, 36, and 60 months, and urological evaluations with PSA every 6 months. Patients with Gleason grade increase or who elected surgical or radiotherapeutic intervention exited the study and were still included in the data analysis. Percentage of normal biopsies in the baseline focus quadrant and median tumor grade and volume were assessed; progression was measured by clinical and pathological outcomes including Gleason grade in the entire prostate sampled as well as for the treated prostate lobe. Interventions associated with Gleason grade increase as well as total incidence for any intervention was assessed.
This example evaluated the percentage of patients having conventional cancer treatment (surgery, radiotherapy, or chemotherapy), and having multifocal prostate cancer in the lobe (or hemi-prostate) in which the foci were initially treated with Gleason primary pattern (cancer treatment with new multifocal and an increase in Gleason grade primary pattern in the hemi-prostate).

[2] = test system: low grade prostate cancer (Gleason grade 6); experiment: clinical study: hemi-prostate multifocal cancer with Gleason upgrade (Example 1); assay type: in vivo, human; conditions: for % Imp. (hemi-prostate multifocal cancer with Gleason upgrade): vs active surveillance control
Experimental: as §1

[3] = test system: low grade prostate cancer (Gleason grade 6); experiment: clinical study: cancer treatment with new multifocal with increased Gleason grade in the hemi-prostate (Example 3); assay type: in vivo, human; conditions: for % Imp. (cancer treatment with new multifocal with increased Gleason grade in the hemi-prostate): vs active surveillance control
Experimental: as §1
This example evaluated the percentage of patients who had conventional cancer treatment (e.g., surgery, radiotherapy, and/or chemotherapy), and who and who had multifocal prostate cancer in the lobe (or hemi-prostate) in which the foci were initially treated with Gleason upgrade (cancer treatment with new multifocal with increased Gleason grade in the hemi-prostate).

[4] = test system: prostate glandular epithelial cells; experiment: tissue culture genetic array, in vitro; assay type: cell-based
Source text: Use of FT is a preferred embodiment. FT is a new molecular entity which in vitro stimulates caspase pathways (activation of caspases 7, 8, and 10, caspase recruitment domains 6, 11, and 14, and DIABLO), tumor necrosis factor pathways (activation of TNF1, TNFSF6, TNFSF8, TNFSF9, CD70 ligands, and TNFRSF19L, TNFRSF25, TRAF2, TRAF3, TRAF4, TRAF6 receptors), and BCL pathways (activation of BIK, HRK, BCL2L10 and BCL3) in prostate glandular epithelial cells, based on tissue culture genetic array data. […] The apoptotic process leads to typical ultrastructural progressive changes of membranous disruption and swelling, progressively deepening nuclear invaginations with eventual membranous bleb formations and cell death and fragmentation into apoptotic bodies. Histologically, typical apoptotic changes with positive immunohistochemical staining of markers for apoptosis are found throughout the injected areas for up to several weeks after treatment.

[5] = test system: low grade prostate cancer (Gleason grade 6); experiment: clinical study: hemi-prostate multifocal cancer with increase in Gleason primary pattern (Example 2); assay type: in vivo, human; conditions: for % Imp. (hemi-prostate multifocal cancer with increase in Gleason primary pattern): vs active surveillance control
Experimental: as §1

[6] = FT 2.5 mg, single transrectal intraprostatic injection, <= 18 mos from treatment
[7] = FT 2.5 mg, single transrectal intraprostatic injection, <= 36 mos from treatment
[8] = FT 2.5 mg, single transrectal intraprostatic injection, <= 48 mos from treatment
[9] = FT 15 mg, single transrectal intraprostatic injection, <= 18 mos from treatment
[10] = FT 15 mg, single transrectal intraprostatic injection, <= 36 mos from treatment
[11] = FT 15 mg, single transrectal intraprostatic injection, <= 48 mos from treatment
[12] = Pooled FT (2.5 mg and 15 mg), <= 18 mos from treatment
[13] = Pooled FT (2.5 mg and 15 mg), <= 36 mos from treatment
[14] = Pooled FT (2.5 mg and 15 mg), <= 48 mos from treatment

Ile-Asp-Gln-Gln-Val-Leu-Ser-Arg-Ile-Lys-Leu-Glu-Ile-Lys-Arg-Cys-Leu (IDQQVLSRIKLEIKRCL; also: trifluoroacetate salt) [FT]
percentage of patients with cancer treatment with new multifocal and an increase in Gleason grade primary pattern in the hemi-prostate [1, 6]: 0% | percentage of patients with cancer treatment with new multifocal and an increase in Gleason grade primary pattern in the hemi-prostate [1, 7]: 0% | percentage of patients with cancer treatment with new multifocal and an increase in Gleason grade primary pattern in the hemi-prostate [1, 8]: 0% | % Imp. (cancer treatment with new multifocal and an increase in Gleason grade primary pattern in the hemi-prostate) ([1]; FT 2.5 mg, <= 18 mos): 100% | % Imp. (cancer treatment with new multifocal and an increase in Gleason grade primary pattern in the hemi-prostate) ([1]; FT 2.5 mg, <= 36 mos): 100% | % Imp. (cancer treatment with new multifocal and an increase in Gleason grade primary pattern in the hemi-prostate) ([1]; FT 2.5 mg, <= 48 mos): 100% | percentage of patients with cancer treatment with new multifocal and an increase in Gleason grade primary pattern in the hemi-prostate [1, 9]: 2.6% | percentage of patients with cancer treatment with new multifocal and an increase in Gleason grade primary pattern in the hemi-prostate [1, 10]: 3.6% | percentage of patients with cancer treatment with new multifocal and an increase in Gleason grade primary pattern in the hemi-prostate [1, 11]: 4.2% | % Imp. (cancer treatment with new multifocal and an increase in Gleason grade primary pattern in the hemi-prostate) ([1]; FT 15 mg, <= 18 mos): 75.2% | % Imp. (cancer treatment with new multifocal and an increase in Gleason grade primary pattern in the hemi-prostate) ([1]; FT 15 mg, <= 36 mos): 79.5% | % Imp. (cancer treatment with new multifocal and an increase in Gleason grade primary pattern in the hemi-prostate) ([1]; FT 15 mg, <= 48 mos): 77.7% | percentage of patients with cancer treatment with new multifocal and an increase in Gleason grade primary pattern in the hemi-prostate [1, 12]: 1.3% | percentage of patients with cancer treatment with new multifocal and an increase in Gleason grade primary pattern in the hemi-prostate [1, 13]: 1.7% | percentage of patients with cancer treatment with new multifocal and an increase in Gleason grade primary pattern in the hemi-prostate [1, 14]: 2.1% | % Imp. (cancer treatment with new multifocal and an increase in Gleason grade primary pattern in the hemi-prostate) ([1]; Pooled FT, <= 18 mos): 87.6% | % Imp. (cancer treatment with new multifocal and an increase in Gleason grade primary pattern in the hemi-prostate) ([1]; Pooled FT, <= 36 mos): 90.3% | % Imp. (cancer treatment with new multifocal and an increase in Gleason grade primary pattern in the hemi-prostate) ([1]; Pooled FT, <= 48 mos): 88.8% | percentage of patients with hemi-prostate multifocal cancer with Gleason upgrade [2, 6]: 8.6% | percentage of patients with hemi-prostate multifocal cancer with Gleason upgrade [2, 7]: 16.7% | percentage of patients with hemi-prostate multifocal cancer with Gleason upgrade [2, 8]: 42.9% | % Imp. (hemi-prostate multifocal cancer with Gleason upgrade) ([2]; FT 2.5 mg, <= 18 mos): 54.26% | % Imp. (hemi-prostate multifocal cancer with Gleason upgrade) ([2]; FT 2.5 mg, <= 36 mos): 53.2% | % Imp. (hemi-prostate multifocal cancer with Gleason upgrade) ([2]; FT 2.5 mg, <= 48 mos): 5.7% | percentage of patients with hemi-prostate multifocal cancer with Gleason upgrade [2, 9]: 5.7% | percentage of patients with hemi-prostate multifocal cancer with Gleason upgrade [2, 10]: 9.1% | percentage of patients with hemi-prostate multifocal cancer with Gleason upgrade [2, 11]: 13.3% | % Imp. (hemi-prostate multifocal cancer with Gleason upgrade) ([2]; FT 15 mg, <= 18 mos): 69.7% | % Imp. (hemi-prostate multifocal cancer with Gleason upgrade) ([2]; FT 15 mg, <= 36 mos): 74.5% | % Imp. (hemi-prostate multifocal cancer with Gleason upgrade) ([2]; FT 15 mg, <= 48 mos): 70.8% | percentage of patients with hemi-prostate multifocal cancer with Gleason upgrade [2, 12]: 7.1% | percentage of patients with hemi-prostate multifocal cancer with Gleason upgrade [2, 13]: 13.0% | percentage of patients with hemi-prostate multifocal cancer with Gleason upgrade [2, 14]: 27.6% | % Imp. (hemi-prostate multifocal cancer with Gleason upgrade) ([2]; Pooled FT, <= 18 mos): 62.2% | % Imp. (hemi-prostate multifocal cancer with Gleason upgrade) ([2]; Pooled FT, <= 36 mos): 63.6% | % Imp. (hemi-prostate multifocal cancer with Gleason upgrade) ([2]; Pooled FT, <= 48 mos): 39.3% | percentage of patients with cancer treatment with new multifocal with increased Gleason grade in the hemi-prostate [3, 6]: 4.9% | percentage of patients with cancer treatment with new multifocal with increased Gleason grade in the hemi-prostate [3, 7]: 10% | percentage of patients with cancer treatment with new multifocal with increased Gleason grade in the hemi-prostate [3, 8]: 17.4% | % Imp. (cancer treatment with new multifocal with increased Gleason grade in the hemi-prostate) ([3]; FT 2.5 mg, <= 18 mos): 69% | % Imp. (cancer treatment with new multifocal with increased Gleason grade in the hemi-prostate) ([3]; FT 2.5 mg, <= 36 mos): 57.4% | % Imp. (cancer treatment with new multifocal with increased Gleason grade in the hemi-prostate) ([3]; FT 2.5 mg, <= 48 mos): 44.4% | percentage of patients with cancer treatment with new multifocal with increased Gleason grade in the hemi-prostate [3, 9]: 5.1% | percentage of patients with cancer treatment with new multifocal with increased Gleason grade in the hemi-prostate [3, 10]: 7.1% | percentage of patients with cancer treatment with new multifocal with increased Gleason grade in the hemi-prostate [3, 11]: 8.3% | % Imp. (cancer treatment with new multifocal with increased Gleason grade in the hemi-prostate) ([3]; FT 15 mg, <= 18 mos): 67.7% | % Imp. (cancer treatment with new multifocal with increased Gleason grade in the hemi-prostate) ([3]; FT 15 mg, <= 36 mos): 69.8% | % Imp. (cancer treatment with new multifocal with increased Gleason grade in the hemi-prostate) ([3]; FT 15 mg, <= 48 mos): 73.5% | percentage of patients with cancer treatment with new multifocal with increased Gleason grade in the hemi-prostate [3, 12]: 5% | percentage of patients with cancer treatment with new multifocal with increased Gleason grade in the hemi-prostate [3, 13]: 8.6% | percentage of patients with cancer treatment with new multifocal with increased Gleason grade in the hemi-prostate [3, 14]: 12.8% | % Imp. (cancer treatment with new multifocal with increased Gleason grade in the hemi-prostate) ([3]; Pooled FT, <= 18 mos): 68.4% | % Imp. (cancer treatment with new multifocal with increased Gleason grade in the hemi-prostate) ([3]; Pooled FT, <= 36 mos): 63.4% | % Imp. (cancer treatment with new multifocal with increased Gleason grade in the hemi-prostate) ([3]; Pooled FT, <= 48 mos): 59.1% | effect on BCL pathways (activation of BIK, HRK, BCL2L10 and BCL3) [4]: stimulates | effect on caspase pathways (activation of caspases 7, 8, and 10, caspase recruitment domains 6, 11, and 14, and DIABLO) [4]: stimulates | effect on tumor necrosis factor pathways (activation of TNF1, TNFSF6, TNFSF8, TNFSF9, CD70 ligands, and TNFRSF19L, TNFRSF25, TRAF2, TRAF3, TRAF4, TRAF6 receptors) [4]: stimulates | percentage of patients with hemi-prostate multifocal cancer with increase in Gleason primary pattern [5, 6]: 0% | percentage of patients with hemi-prostate multifocal cancer with increase in Gleason primary pattern [5, 7]: 0% | percentage of patients with hemi-prostate multifocal cancer with increase in Gleason primary pattern [5, 8]: 0% | % Imp. (hemi-prostate multifocal cancer with increase in Gleason primary pattern) ([5]; FT 2.5 mg, <= 18 mos): 100% | % Imp. (hemi-prostate multifocal cancer with increase in Gleason primary pattern) ([5]; FT 2.5 mg, <= 36 mos): 100% | % Imp. (hemi-prostate multifocal cancer with increase in Gleason primary pattern) ([5]; FT 2.5 mg, <= 48 mos): 100% | percentage of patients with hemi-prostate multifocal cancer with increase in Gleason primary pattern [5, 9]: 2.9% | percentage of patients with hemi-prostate multifocal cancer with increase in Gleason primary pattern [5, 10]: 4.5% | percentage of patients with hemi-prostate multifocal cancer with increase in Gleason primary pattern [5, 11]: 6.7% | % Imp. (hemi-prostate multifocal cancer with increase in Gleason primary pattern) ([5]; FT 15 mg, <= 18 mos): 76.8% | % Imp. (hemi-prostate multifocal cancer with increase in Gleason primary pattern) ([5]; FT 15 mg, <= 36 mos): 79% | % Imp. (hemi-prostate multifocal cancer with increase in Gleason primary pattern) ([5]; FT 15 mg, <= 48 mos): 75.5% | percentage of patients with hemi-prostate multifocal cancer with increase in Gleason primary pattern [5, 12]: 1.4% | percentage of patients with hemi-prostate multifocal cancer with increase in Gleason primary pattern [5, 13]: 2.2% | percentage of patients with hemi-prostate multifocal cancer with increase in Gleason primary pattern [5, 14]: 3.4% | % Imp. (hemi-prostate multifocal cancer with increase in Gleason primary pattern) ([5]; Pooled FT, <= 18 mos): 88.8% | % Imp. (hemi-prostate multifocal cancer with increase in Gleason primary pattern) ([5]; Pooled FT, <= 36 mos): 89.7% | % Imp. (hemi-prostate multifocal cancer with increase in Gleason primary pattern) ([5]; Pooled FT, <= 48 mos): 87.5%
